Entries after “also recorded” stand apart in the source; their conditions may differ. Like-named read-outs stand apart in the source and are kept apart here.
Columns and labels:
[1] = system: SARS-CoV-2 (USA_WA01/2020) in Vero E6 cells; experiment: Antiviral assay in SARS-CoV-2-infected Vero E6 cells; assay type: cell-based; conditions: read-out: Antiviral EC50, MOI 0.01, 72 h, cell proliferation
[2] = target: T1, SARS-CoV-2 M^pro (Severe acute respiratory syndrome coronavirus 2, UniProt P0DTD1); experiment: Preincubation dilution experiment; assay type: biochemical
[3] = target: T1, SARS-CoV-2 M^pro; experiment: Steady-state enzyme kinetics, inhibition mechanism; assay type: biochemical
[4] = system: SARS-CoV-2 USA-WA1/2020 in human iPSC-derived lung organoids
[5] = 10 μM preincubation 30 min, 10× dilution

How did the EC50 [1] turn out when “2-(4-Chlorophenyl)benzo[d][1,2]selenazol-3(2H)-one [Compound E15]” was run?
Its EC50 is 11.2 ± 1.3 µM.

What does the source list for `O=c1c2ccccc2[se]n1-c1ccccc1` [Compound E01, 2-Phenylbenzo[d][1,2]selenazol-3(2H)-one, reference compound]?
type of inhibition from preincubation dilution [2]: reversible covalent inhibitor; mechanism of inhibition [3]: likely competitive inhibitors

Which results are given for `O=c1c2ccccc2[se]n1-c1ccc(C(F)(F)F)cc1` [Compound E04, 2-(4-(Trifluoromethyl)phenyl)benzo[d][1,2]selenazol-3(2H)-one]?
type of inhibition from preincubation dilution [2, 5]: rapidly reversible inhibitor; mechanism of inhibition ([3]; 0.5-10 μM inhibitor, 1.5-30 μM substrate, global fit to mixed model): likely competitive inhibitors

Which “type of inhibition from preincubation dilution” value (“type of inhibition” below) [2, 5] does the source give for `COc1ccc(Cn2[se]c3ccccc3c2=O)c(OC)c1` [Compound E07, 2-(2,4-Dimethoxybenzyl)benzo[d][1,2]selenazol-3(2H)-one] here?
Its value is “reversible covalent inhibitor”.

How did the “type of inhibition” value [2, 5] turn out when `O=c1c2ccccc2[se]n1-c1cccc(Cl)c1` [Compound E19, 2-(3-Chlorophenyl)benzo[d][1,2]selenazol-3(2H)-one] was run?
Its value is “rapidly reversible inhibitor”.

Which “type of inhibition” value [2, 5] does the source give for `O=c1c2ccccc2[se]n1-c1cc(Cl)cc(Cl)c1` [Compound E20, 2-(3,5-Dichlorophenyl)benzo[d][1,2]selenazol-3(2H)-one] here?
Its value is “reversible covalent inhibitor”.

Which “reduction of viral RNA levels, intracellular fraction” value [4] does the source give for `O=c1c2ccccc2[se]n1-c1cccc(C(F)(F)F)c1` [Compound E24, 2-(3-(Trifluoromethyl)phenyl)benzo[d][1,2]selenazol-3(2H)-one] here?
The value was ~50%.

What about the “reduction of viral RNA levels, supernatant fraction” value [4] of the same compound?
Its value is ~50%.

What about the “toxicity toward the organoids” value ([4]; 5 μM, 72 h) of the same compound?
Its value is “no observable toxicity”.

How did the “type of inhibition” value [2, 5] turn out when `N#Cc1cccc(-n2[se]c3ccccc3c2=O)c1` [Compound E25, 3-(3-Oxobenzo[d][1,2]selenazol-2(3H)-yl)benzonitrile] was run?
Its value is “some recovery of the enzymatic activity but not a complete recovery; also recorded: reversible covalent inhibitor”.

From article PMC8491550 (Journal of Medicinal Chemistry, 2021)
